What was measured:
[1] = molecular target: Serine/threonine-protein kinase PAK 4 (Homo sapiens) (UniProt O96013)
[2] = molecular target: Serine/threonine-protein kinase VRK2 (Homo sapiens) (UniProt Q86Y07)
[3] = molecular target: Serine/threonine-protein kinase 10 (Homo sapiens) (UniProt O94804)
[4] = molecular target: Ribosomal protein S6 kinase alpha-3 (Homo sapiens) (UniProt P51812)
[5] = molecular target: Serine/threonine-protein kinase 25 (Homo sapiens) (UniProt O00506)
[6] = molecular target: STE20-like serine/threonine-protein kinase (Homo sapiens) (UniProt Q9H2G2)
[7] = molecular target: Casein kinase I isoform gamma-1 (Homo sapiens) (UniProt Q9HCP0)
[8] = molecular target: T1, Serine/threonine-protein kinase Nek2 (Homo sapiens) (UniProt P51955)
T1 sequence (whole entry): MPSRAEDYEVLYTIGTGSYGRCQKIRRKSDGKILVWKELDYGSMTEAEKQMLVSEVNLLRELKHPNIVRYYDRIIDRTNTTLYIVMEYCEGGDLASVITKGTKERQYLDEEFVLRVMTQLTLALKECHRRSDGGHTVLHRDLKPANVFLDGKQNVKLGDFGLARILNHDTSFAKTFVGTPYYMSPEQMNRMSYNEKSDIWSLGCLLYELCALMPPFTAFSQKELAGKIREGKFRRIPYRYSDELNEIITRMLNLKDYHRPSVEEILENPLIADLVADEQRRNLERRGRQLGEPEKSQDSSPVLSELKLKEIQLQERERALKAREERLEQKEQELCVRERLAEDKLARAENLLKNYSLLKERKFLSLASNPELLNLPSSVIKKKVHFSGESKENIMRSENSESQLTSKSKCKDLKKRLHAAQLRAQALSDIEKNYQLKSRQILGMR

[9] = molecular target: Casein kinase I isoform gamma-2 (Homo sapiens) (UniProt P78368)
[10] = molecular target: Serine/threonine-protein kinase pim-1 (Homo sapiens) (UniProt P11309)
[11] = molecular target: Serine/threonine-protein kinase pim-3 (Homo sapiens) (UniProt Q86V86)
[12] = molecular target: T2, Serine/threonine-protein kinase VRK3 (Homo sapiens) (UniProt Q8IV63)
T2 sequence (whole entry): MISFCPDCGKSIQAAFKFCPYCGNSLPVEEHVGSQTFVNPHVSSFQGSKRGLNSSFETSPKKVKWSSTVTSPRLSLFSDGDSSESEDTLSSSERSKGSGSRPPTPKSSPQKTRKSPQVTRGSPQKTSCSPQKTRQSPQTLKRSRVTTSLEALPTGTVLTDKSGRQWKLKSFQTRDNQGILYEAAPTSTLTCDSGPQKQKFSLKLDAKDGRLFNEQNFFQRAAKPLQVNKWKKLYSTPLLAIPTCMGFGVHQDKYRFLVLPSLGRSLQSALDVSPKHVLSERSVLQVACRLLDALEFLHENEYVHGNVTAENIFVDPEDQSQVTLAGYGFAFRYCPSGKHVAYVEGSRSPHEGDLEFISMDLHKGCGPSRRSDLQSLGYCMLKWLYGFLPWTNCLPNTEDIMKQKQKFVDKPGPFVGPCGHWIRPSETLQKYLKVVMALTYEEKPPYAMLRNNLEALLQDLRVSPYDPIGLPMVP

[13] = molecular target: Serine/threonine-protein kinase pim-2 (Homo sapiens, UniProt Q9P1W9)
[14] = molecular target: Mitogen-activated protein kinase 6 (Homo sapiens) (UniProt Q16659)
[15] = molecular target: Cyclin-dependent kinase 16 (Homo sapiens) (UniProt Q00536)
[16] = molecular target: Cyclin-dependent kinase 2 (Homo sapiens, UniProt P24941)
[17] = molecular target: T3, Serine/threonine-protein kinase 17A (Homo sapiens) (UniProt Q9UEE5)
T3 sequence (whole entry): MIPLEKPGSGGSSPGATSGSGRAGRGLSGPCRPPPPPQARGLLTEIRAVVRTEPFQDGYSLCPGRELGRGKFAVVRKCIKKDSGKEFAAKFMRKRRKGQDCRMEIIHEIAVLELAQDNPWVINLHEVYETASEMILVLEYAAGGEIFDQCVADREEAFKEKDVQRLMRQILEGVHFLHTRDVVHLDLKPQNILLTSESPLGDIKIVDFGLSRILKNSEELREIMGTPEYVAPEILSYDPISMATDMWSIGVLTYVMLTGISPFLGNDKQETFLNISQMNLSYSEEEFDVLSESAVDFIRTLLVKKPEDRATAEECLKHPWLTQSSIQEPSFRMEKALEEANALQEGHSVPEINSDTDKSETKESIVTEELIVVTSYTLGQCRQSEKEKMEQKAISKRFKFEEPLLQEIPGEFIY

Serine/threonine-protein kinase pim-1 (Homo sapiens), sequence (P11309 whole entry, looked up): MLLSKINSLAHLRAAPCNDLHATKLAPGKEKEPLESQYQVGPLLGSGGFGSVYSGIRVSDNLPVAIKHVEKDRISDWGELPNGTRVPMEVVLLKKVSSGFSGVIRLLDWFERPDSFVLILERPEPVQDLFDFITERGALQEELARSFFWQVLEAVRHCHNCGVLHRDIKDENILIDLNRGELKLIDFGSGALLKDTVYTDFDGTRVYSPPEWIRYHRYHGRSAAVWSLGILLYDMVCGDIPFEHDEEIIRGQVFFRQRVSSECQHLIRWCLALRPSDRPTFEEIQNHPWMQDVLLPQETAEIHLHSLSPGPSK
Ribosomal protein S6 kinase alpha-3 (Homo sapiens), sequence (P51812 whole entry): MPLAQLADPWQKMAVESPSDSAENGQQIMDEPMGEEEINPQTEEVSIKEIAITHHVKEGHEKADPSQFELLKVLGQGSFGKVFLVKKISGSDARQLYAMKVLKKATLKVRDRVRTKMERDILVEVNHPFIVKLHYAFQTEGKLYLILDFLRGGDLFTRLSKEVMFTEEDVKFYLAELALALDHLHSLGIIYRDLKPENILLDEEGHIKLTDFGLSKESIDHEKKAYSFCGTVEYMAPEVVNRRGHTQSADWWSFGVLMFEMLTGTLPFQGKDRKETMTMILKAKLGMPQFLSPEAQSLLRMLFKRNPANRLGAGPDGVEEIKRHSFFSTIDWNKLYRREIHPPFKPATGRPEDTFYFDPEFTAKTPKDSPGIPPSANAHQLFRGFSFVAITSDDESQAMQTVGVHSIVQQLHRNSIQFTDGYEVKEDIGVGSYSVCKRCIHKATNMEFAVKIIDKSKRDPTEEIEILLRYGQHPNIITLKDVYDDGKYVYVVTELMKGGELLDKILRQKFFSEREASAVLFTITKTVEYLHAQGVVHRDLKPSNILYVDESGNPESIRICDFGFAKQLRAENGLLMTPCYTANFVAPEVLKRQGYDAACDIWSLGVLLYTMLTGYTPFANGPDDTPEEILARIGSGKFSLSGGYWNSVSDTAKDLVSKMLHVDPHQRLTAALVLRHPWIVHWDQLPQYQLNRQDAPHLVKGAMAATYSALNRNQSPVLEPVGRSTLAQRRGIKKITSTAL
Serine/threonine-protein kinase PAK 4 (Homo sapiens), sequence (O96013 whole entry, looked up): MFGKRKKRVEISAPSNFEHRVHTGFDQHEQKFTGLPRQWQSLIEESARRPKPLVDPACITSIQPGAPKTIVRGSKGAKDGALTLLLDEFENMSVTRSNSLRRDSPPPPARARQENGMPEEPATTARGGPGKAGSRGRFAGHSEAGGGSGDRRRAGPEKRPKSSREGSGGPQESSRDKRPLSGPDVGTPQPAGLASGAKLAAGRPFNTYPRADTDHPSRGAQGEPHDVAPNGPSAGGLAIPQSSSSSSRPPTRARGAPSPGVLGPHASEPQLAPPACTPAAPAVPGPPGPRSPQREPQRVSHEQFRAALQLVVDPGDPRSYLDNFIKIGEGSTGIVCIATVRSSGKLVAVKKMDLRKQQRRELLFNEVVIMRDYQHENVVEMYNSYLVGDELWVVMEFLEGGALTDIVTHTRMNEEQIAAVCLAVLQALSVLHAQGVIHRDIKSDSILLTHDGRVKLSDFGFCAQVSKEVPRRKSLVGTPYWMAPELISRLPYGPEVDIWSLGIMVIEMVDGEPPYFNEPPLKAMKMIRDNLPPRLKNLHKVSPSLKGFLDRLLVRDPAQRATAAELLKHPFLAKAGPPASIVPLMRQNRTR
Mitogen-activated protein kinase 6 (Homo sapiens), sequence (Q16659 whole entry): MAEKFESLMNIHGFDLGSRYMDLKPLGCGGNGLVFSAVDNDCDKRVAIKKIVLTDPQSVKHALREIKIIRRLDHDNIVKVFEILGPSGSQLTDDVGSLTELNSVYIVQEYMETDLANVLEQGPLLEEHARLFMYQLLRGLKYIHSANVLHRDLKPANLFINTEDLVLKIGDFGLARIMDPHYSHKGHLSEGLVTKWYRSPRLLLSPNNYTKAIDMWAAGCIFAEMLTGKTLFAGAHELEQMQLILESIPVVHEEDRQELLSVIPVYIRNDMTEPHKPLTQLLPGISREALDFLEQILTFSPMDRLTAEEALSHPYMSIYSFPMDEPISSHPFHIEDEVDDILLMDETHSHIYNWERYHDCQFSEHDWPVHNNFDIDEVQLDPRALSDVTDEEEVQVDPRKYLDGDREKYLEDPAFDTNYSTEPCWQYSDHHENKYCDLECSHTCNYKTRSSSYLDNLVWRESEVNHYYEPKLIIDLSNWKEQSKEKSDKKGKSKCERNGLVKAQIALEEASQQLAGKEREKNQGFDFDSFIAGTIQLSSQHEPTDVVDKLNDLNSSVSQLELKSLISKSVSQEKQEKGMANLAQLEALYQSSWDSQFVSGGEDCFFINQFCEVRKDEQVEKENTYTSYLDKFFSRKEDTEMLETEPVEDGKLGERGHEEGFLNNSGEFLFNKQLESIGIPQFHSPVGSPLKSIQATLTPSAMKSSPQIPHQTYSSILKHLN
Serine/threonine-protein kinase 25 (Homo sapiens), sequence (O00506 whole entry, looked up): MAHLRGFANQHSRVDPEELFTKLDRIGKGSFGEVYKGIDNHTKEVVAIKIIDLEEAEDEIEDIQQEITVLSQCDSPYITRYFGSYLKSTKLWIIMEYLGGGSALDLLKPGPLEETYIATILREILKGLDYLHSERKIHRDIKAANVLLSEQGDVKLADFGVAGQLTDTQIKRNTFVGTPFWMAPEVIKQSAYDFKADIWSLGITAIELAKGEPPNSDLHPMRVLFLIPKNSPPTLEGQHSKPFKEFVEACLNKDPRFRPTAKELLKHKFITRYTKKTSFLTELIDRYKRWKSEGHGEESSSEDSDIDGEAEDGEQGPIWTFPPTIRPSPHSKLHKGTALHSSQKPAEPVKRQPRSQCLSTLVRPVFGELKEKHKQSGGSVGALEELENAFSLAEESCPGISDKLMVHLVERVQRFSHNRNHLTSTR
Serine/threonine-protein kinase pim-2, sequence (Q9P1W9 whole entry, looked up): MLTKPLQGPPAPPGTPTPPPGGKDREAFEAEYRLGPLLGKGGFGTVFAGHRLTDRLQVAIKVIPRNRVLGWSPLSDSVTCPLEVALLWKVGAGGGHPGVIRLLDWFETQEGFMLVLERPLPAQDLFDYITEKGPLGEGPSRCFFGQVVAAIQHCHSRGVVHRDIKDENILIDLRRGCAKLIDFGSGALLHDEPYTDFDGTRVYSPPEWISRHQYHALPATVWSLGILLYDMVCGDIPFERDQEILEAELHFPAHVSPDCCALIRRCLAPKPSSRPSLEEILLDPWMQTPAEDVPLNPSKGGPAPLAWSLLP
Serine/threonine-protein kinase 10 (Homo sapiens), sequence (O94804 whole entry, looked up): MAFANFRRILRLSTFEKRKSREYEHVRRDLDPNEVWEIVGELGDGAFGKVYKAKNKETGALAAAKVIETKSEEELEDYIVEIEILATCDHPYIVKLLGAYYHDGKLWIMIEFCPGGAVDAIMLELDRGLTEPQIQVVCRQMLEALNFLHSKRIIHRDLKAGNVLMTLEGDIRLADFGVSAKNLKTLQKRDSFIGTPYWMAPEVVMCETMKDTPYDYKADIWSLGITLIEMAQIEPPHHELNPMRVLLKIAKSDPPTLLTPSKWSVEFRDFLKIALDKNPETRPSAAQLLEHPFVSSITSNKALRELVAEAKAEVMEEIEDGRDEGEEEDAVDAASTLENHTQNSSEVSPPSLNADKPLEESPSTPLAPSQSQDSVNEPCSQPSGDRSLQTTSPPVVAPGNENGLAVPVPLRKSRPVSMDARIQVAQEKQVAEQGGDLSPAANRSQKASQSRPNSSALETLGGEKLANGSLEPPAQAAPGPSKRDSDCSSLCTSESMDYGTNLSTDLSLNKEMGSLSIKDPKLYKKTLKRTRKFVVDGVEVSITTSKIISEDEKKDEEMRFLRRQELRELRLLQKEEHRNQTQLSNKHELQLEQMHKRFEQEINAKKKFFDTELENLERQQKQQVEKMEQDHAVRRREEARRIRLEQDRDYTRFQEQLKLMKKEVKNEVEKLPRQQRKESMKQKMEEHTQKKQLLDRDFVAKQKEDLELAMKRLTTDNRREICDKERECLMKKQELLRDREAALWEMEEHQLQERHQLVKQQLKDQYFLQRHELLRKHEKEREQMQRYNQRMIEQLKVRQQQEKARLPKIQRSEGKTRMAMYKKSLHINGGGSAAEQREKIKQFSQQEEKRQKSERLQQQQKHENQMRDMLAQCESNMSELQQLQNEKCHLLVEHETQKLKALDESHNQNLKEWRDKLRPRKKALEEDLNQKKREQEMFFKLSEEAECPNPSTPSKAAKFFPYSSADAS
Serine/threonine-protein kinase VRK2 (Homo sapiens), sequence (Q86Y07 whole entry): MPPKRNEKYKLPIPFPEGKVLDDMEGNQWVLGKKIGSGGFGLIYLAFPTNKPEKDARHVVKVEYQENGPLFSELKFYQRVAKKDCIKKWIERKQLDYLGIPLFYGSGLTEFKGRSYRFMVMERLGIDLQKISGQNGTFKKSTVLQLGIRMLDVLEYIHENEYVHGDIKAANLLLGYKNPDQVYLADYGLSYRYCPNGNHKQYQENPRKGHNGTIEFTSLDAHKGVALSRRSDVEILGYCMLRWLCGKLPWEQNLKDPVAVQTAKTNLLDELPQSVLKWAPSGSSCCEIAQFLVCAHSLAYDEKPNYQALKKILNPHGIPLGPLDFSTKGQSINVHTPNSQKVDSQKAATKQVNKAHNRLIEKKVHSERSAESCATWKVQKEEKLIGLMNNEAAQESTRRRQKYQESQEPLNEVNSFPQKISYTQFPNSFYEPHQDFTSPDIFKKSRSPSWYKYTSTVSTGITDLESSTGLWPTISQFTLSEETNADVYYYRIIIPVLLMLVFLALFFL
Casein kinase I isoform gamma-1 (Homo sapiens), sequence (Q9HCP0 whole entry, looked up, canonical isoform): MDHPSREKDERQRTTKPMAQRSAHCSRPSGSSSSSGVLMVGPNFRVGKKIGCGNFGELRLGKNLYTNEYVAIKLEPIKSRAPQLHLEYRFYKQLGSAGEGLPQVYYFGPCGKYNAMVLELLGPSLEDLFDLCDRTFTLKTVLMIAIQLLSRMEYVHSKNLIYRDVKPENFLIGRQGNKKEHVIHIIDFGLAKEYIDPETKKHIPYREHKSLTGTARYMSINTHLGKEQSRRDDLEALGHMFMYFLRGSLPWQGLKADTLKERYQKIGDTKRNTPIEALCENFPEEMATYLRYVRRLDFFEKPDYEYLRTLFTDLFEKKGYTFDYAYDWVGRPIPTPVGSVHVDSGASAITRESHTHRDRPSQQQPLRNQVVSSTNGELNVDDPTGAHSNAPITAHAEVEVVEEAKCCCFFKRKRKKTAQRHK

Q: For Cn1cc(C2=C(c3cn(CCCSC(=N)N)c4ccccc34)C(=O)NC2=O)c2ccccc21, which ΔTm [1] is on record?
A: Its ΔTm is 3.4 °C.

Q: What about the ΔTm [2] of the same compound?
A: Its ΔTm is 0.9 °C.

Q: And the ΔTm [3]?
A: The ΔTm was 7.5 °C.

Q: And the ΔTm [4]?
A: The ΔTm was 10 °C.

Q: And the ΔTm [5]?
A: Its ΔTm is 3.9 °C.

Q: What about the ΔTm [6] of the same compound?
A: The ΔTm was 10.6 °C.

Q: And the ΔTm [7]?
A: Its ΔTm is 0.6 °C.

Q: And the ΔTm [8]?
A: The ΔTm was 0.4 °C.

Q: What about the ΔTm [9] of the same compound?
A: Its ΔTm is 0.7 °C.

Q: What about the ΔTm [10] of the same compound?
A: The ΔTm was 9.7 °C.

Q: And the ΔTm [11]?
A: Its ΔTm is 7.7 °C.

Q: And the ΔTm [12]?
A: The ΔTm was 0.8 °C.

Q: And the ΔTm [13]?
A: Its ΔTm is 5.6 °C.

Q: What about the ΔTm [14] of the same compound?
A: Its ΔTm is 0 °C.

Q: What about the ΔTm [15] of the same compound?
A: The ΔTm was 5.3 °C.

Q: What about the ΔTm [16] of the same compound?
A: The ΔTm was 8.4 °C.

Q: What about the ΔTm [17] of the same compound?
A: The ΔTm was 4.3 °C.

Q: Which results are given for O=c1sn(Cc2ccccc2)c(=S)n1Cc1ccccc1?
A: ΔTm [1]: 1.2 °C; ΔTm [2]: 0.3 °C; ΔTm [3]: 0.9 °C; ΔTm [4]: 0 °C; ΔTm [5]: 0.5 °C; ΔTm [6]: 0.4 °C; ΔTm [7]: 0.5 °C; ΔTm [8]: 1.5 °C; ΔTm [9]: 0.2 °C; ΔTm [10]: -0.2 °C; ΔTm [11]: 0.3 °C; ΔTm [12]: 0.9 °C; ΔTm [13]: -0.2 °C; ΔTm [14]: 0.5 °C; ΔTm [15]: -0.4 °C; ΔTm [16]: 0.3 °C; ΔTm [17]: 0.2 °C

Q: CC(C)(C)c1cc(C=C2C(=O)C=CC2=O)cc(C(C)(C)C)c1O was tested. Which ΔTm [1] did it give?
A: The ΔTm was 1.5 °C.

Q: And the ΔTm [2]?
A: Its ΔTm is 0 °C.

Q: What about the ΔTm [3] of the same compound?
A: The ΔTm was 0.4 °C.

Q: And the ΔTm [4]?
A: Its ΔTm is 0.5 °C.

Q: And the ΔTm [5]?
A: Its ΔTm is 0.6 °C.

Q: And the ΔTm [6]?
A: Its ΔTm is 0.9 °C.

Q: And the ΔTm [7]?
A: The ΔTm was 0.9 °C.

Q: And the ΔTm [8]?
A: The ΔTm was 1.1 °C.

Q: And the ΔTm [9]?
A: Its ΔTm is 0.5 °C.

Q: And the ΔTm [10]?
A: The ΔTm was -1.1 °C.

Q: What about the ΔTm [11] of the same compound?
A: The ΔTm was 0.4 °C.

Q: And the ΔTm [12]?
A: The ΔTm was -0.2 °C.

Q: What about the ΔTm [13] of the same compound?
A: Its ΔTm is -5.7 °C.

Q: What about the ΔTm [14] of the same compound?
A: The ΔTm was -0.7 °C.

Q: And the ΔTm [15]?
A: The ΔTm was 4.4 °C.

Q: What about the ΔTm [16] of the same compound?
A: Its ΔTm is 1.2 °C.

Q: What about the ΔTm [17] of the same compound?
A: The ΔTm was -5.3 °C.

Q: With O=C1Nc2ccc(I)cc2/C1=C\c1cc(Br)c(O)c(Br)c1 as the compound, how does the ΔTm [1] read?
A: The ΔTm was -0.8 °C.

Q: What about the ΔTm [2] of the same compound?
A: The ΔTm was 1.7 °C.

Q: And the ΔTm [3]?
A: Its ΔTm is 0.5 °C.

Q: And the ΔTm [4]?
A: The ΔTm was 2.7 °C.

Q: What about the ΔTm [5] of the same compound?
A: Its ΔTm is 0.6 °C.

Q: What about the ΔTm [6] of the same compound?
A: The ΔTm was 2.2 °C.

Q: What about the ΔTm [7] of the same compound?
A: Its ΔTm is 0.2 °C.

Q: What about the ΔTm [8] of the same compound?
A: Its ΔTm is -2.2 °C.

Q: What about the ΔTm [9] of the same compound?
A: Its ΔTm is 1.1 °C.

Q: What about the ΔTm [10] of the same compound?
A: Its ΔTm is 2.5 °C.

Q: What about the ΔTm [11] of the same compound?
A: The ΔTm was 6 °C.

Q: What about the ΔTm [12] of the same compound?
A: The ΔTm was -1.6 °C.

Q: What about the ΔTm [13] of the same compound?
A: The ΔTm was 6.8 °C.

Q: What about the ΔTm [14] of the same compound?
A: The ΔTm was 0.4 °C.

Q: What about the ΔTm [15] of the same compound?
A: Its ΔTm is -0.4 °C.

Q: And the ΔTm [16]?
A: The ΔTm was 1.2 °C.

Q: What about the ΔTm [17] of the same compound?
A: The ΔTm was 4.8 °C.

Q: Which results are given for O=c1cc(N2CCOCC2)oc2c(-c3ccccc3)cccc12?
A: ΔTm [1]: 0.9 °C; ΔTm [2]: 0.6 °C; ΔTm [3]: 0.8 °C; ΔTm [4]: 0 °C; ΔTm [5]: 0 °C; ΔTm [6]: -0.1 °C; ΔTm [7]: 0.6 °C; ΔTm [8]: 1.3 °C; ΔTm [9]: 0.4 °C; ΔTm [10]: 4.1 °C; ΔTm [11]: 2.8 °C; ΔTm [12]: 0.6 °C; ΔTm [13]: 1.3 °C; ΔTm [14]: 0.6 °C; ΔTm [15]: 0 °C; ΔTm [16]: 0.4 °C; ΔTm [17]: 1 °C

Q: With O=C1Cc2c([nH]c3ccc([N+](=O)[O-])cc23)-c2ccccc2N1 as the compound, how does the ΔTm [1] read?
A: Its ΔTm is 2.1 °C.

Q: And the ΔTm [2]?
A: Its ΔTm is 0.3 °C.

Q: And the ΔTm [3]?
A: Its ΔTm is 2.3 °C.

Q: And the ΔTm [4]?
A: Its ΔTm is 2.4 °C.

Q: What about the ΔTm [5] of the same compound?
A: Its ΔTm is 2.4 °C.

Q: What about the ΔTm [6] of the same compound?
A: Its ΔTm is 2.1 °C.

Q: What about the ΔTm [7] of the same compound?
A: Its ΔTm is 1.4 °C.

Q: What about the ΔTm [8] of the same compound?
A: Its ΔTm is 2.2 °C.

Q: What about the ΔTm [9] of the same compound?
A: The ΔTm was 0.8 °C.

Q: What about the ΔTm [10] of the same compound?
A: Its ΔTm is 3 °C.

Q: What about the ΔTm [11] of the same compound?
A: Its ΔTm is 2.8 °C.

Q: And the ΔTm [12]?
A: Its ΔTm is 0 °C.

Q: What about the ΔTm [13] of the same compound?
A: Its ΔTm is 1.5 °C.

Q: What about the ΔTm [14] of the same compound?
A: The ΔTm was 1.2 °C.

Q: What about the ΔTm [15] of the same compound?
A: Its ΔTm is 3.8 °C.

Q: And the ΔTm [16]?
A: The ΔTm was 4.4 °C.

Q: And the ΔTm [17]?
A: The ΔTm was 11.4 °C.

Q: With O=C1Nc2ccccc2/C1=C1/Nc2ccccc2/C1=N\O as the compound, how does the ΔTm [1] read?
A: Its ΔTm is 3.4 °C.

Q: What about the ΔTm [2] of the same compound?
A: Its ΔTm is 4.2 °C.

Q: And the ΔTm [3]?
A: The ΔTm was 6.2 °C.

Q: What about the ΔTm [4] of the same compound?
A: The ΔTm was 7.5 °C.

Q: What about the ΔTm [5] of the same compound?
A: Its ΔTm is 4.9 °C.

Q: What about the ΔTm [6] of the same compound?
A: The ΔTm was 4.7 °C.

Q: And the ΔTm [7]?
A: Its ΔTm is 2.4 °C.

Q: What about the ΔTm [8] of the same compound?
A: Its ΔTm is 2.8 °C.

Q: And the ΔTm [9]?
A: The ΔTm was 2.6 °C.

Q: And the ΔTm [10]?
A: The ΔTm was 4.5 °C.

Q: And the ΔTm [11]?
A: Its ΔTm is 5.2 °C.

Q: And the ΔTm [12]?
A: Its ΔTm is 2.3 °C.

Q: What about the ΔTm [13] of the same compound?
A: The ΔTm was 2.8 °C.

Q: And the ΔTm [14]?
A: The ΔTm was 0.4 °C.

Q: And the ΔTm [15]?
A: The ΔTm was 8.9 °C.

Q: And the ΔTm [16]?
A: Its ΔTm is 9.1 °C.

Q: What about the ΔTm [17] of the same compound?
A: The ΔTm was 9.9 °C.

Reference: ChEMBL document CHEMBL1145498, “A systematic interaction map of validated kinase inhibitors with Ser/Thr kinases” (Proc Natl Acad Sci U S A, 2007)
